The values that follow come from PubChem BioAssay (NCI).

Molecules are shown by their SMILES. Where “and” joins values, the source holds several entries; their conditions need not be identical. Equal values may be shown once.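 Five concentrations, 48 hours, 96-well plates. GI50: concentration for 50% inhibition of growth. TGI marks complete inhibition of growth.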 Where only a bound is given, the exact number is not on record here.

Among the test systems are A498 renal; A549 NSCLC; COLO 205 colon; DU-145 prostate; HCT-15 colon; HOP-92 NSCLC; NCI/ADR-RES ovarian; SF-539 CNS; SK-MEL-5 melanoma; SN12C renal.
Holding throughout (test): NCI-60 cell line screen, 48 h

Consider `O=C(Nc1ccc(-n2ccc3c(NC(=O)c4ccccc4)ncnc32)cc1)c1cccc(C(F)(F)F)c1`, for which the GI50 is 3.51 µM in the assay with A498 renal; 0.966 µM with A549 NSCLC; 4.1 µM in the assay with COLO 205 colon; 1.77 µM in the assay on DU-145 prostate; 0.0643 µM in the assay with HCT-15 colon; 7.51 µM in the assay with HOP-92 NSCLC. For the same compound, the GI50 in the assay with NCI/ADR-RES ovarian was 2.67 µM; in the assay on SF-539 CNS it was 1.11 µM; in the assay on SK-MEL-5 melanoma, 0.232 µM; with SN12C renal it was 5.27 µM. Further, the TGI turned out to be 23.2 µM in the assay with A498 renal; 21.1 µM in the assay on A549 NSCLC; 20.9 µM in the assay with COLO 205 colon; 16.1 µM in the assay on DU-145 prostate; 24.8 µM with HCT-15 colon; 26 µM in the assay on HOP-92 NSCLC. The TGI was 37.4 µM with NCI/ADR-RES ovarian, more than 93.3 µM with SF-539 CNS, 15.8 µM in the assay on SK-MEL-5 melanoma and 27.9 µM in the assay on SN12C renal.

Consider `CC(C)c1nc(N(C)S(C)(=O)=O)nc(-c2ccc(F)cc2)c1/C=C/[C@@H](O)C[C@@H](O)CC(=O)O`, for which the GI50 with A498 renal is 3.57 µM; in the assay with A549 NSCLC, more than 100 µM; in the assay with COLO 205 colon it was more than 100 µM; in the assay with DU-145 prostate, more than 100 µM; in the assay with HCT-15 colon, 57.4 µM; in the assay with HOP-92 NSCLC it was 0.467 µM. Besides, the GI50 with NCI/ADR-RES ovarian was 48.6 µM; in the assay on SF-539 CNS it was more than 100 µM; in the assay on SK-MEL-5 melanoma it was 52.7 µM; in the assay on SN12C renal, 56.2 µM. The TGI is 20.8 µM with A498 renal; more than 100 µM in the assay with A549 NSCLC; more than 100 µM in the assay with COLO 205 colon; more than 100 µM in the assay on DU-145 prostate; more than 100 µM in the assay on HCT-15 colon; 6.68 µM in the assay on HOP-92 NSCLC. Moreover, the TGI in the assay with NCI/ADR-RES ovarian, in the assay with SF-539 CNS, in the assay with SK-MEL-5 melanoma and in the assay with SN12C renal was more than 100 µM in each case.

As to `O=c1c2cc(-c3ccccc3)sc2ncn1Cc1ccc(Cl)c(Cl)c1`, the GI50 was 19.4 µM in the assay with A498 renal; 18 µM with A549 NSCLC; more than 100 µM with COLO 205 colon; 32.9 µM in the assay with DU-145 prostate; 0.845 µM in the assay on HCT-15 colon; 16.2 µM in the assay on HOP-92 NSCLC. The GI50 was 19.5 µM in the assay with NCI/ADR-RES ovarian, 14 µM in the assay on SF-539 CNS, 34.2 µM in the assay with SK-MEL-5 melanoma and 13.1 µM with SN12C renal. Moreover, the TGI in the assay with A498 renal was 50.3 µM; in the assay on A549 NSCLC, more than 100 µM; in the assay on COLO 205 colon, more than 100 µM; in the assay with DU-145 prostate it was more than 100 µM; in the assay on HCT-15 colon, more than 100 µM; in the assay on HOP-92 NSCLC, 40.5 µM. Besides, the TGI in the assay on NCI/ADR-RES ovarian is 59 µM; in the assay with SF-539 CNS it was 43 µM; with SK-MEL-5 melanoma it was more than 100 µM; with SN12C renal, 39.1 µM.

Regarding `CC1=C2C(=CC(C)(C)[C@@H]2O)C(=O)[C@](C)(O)C12CC2`, the GI50 was 0.0183 µM and 0.0108 µM in the assay on A498 renal; 0.0209 µM in the assay with COLO 205 colon; 0.00545 µM in the assay with DU-145 prostate; 0.00514 µM in the assay with HCT-15 colon; 0.0268 µM in the assay on HOP-92 NSCLC; 0.0223 µM in the assay with NCI/ADR-RES ovarian. The GI50 in the assay on SK-MEL-5 melanoma is 0.0159 µM; in the assay with SN12C renal, 0.0387 µM. Further, the TGI with A498 renal is 0.0499 µM and 0.0553 µM; in the assay with A549 NSCLC, 0.191 µM and 1.12 µM; with COLO 205 colon, 0.0989 µM and 0.0977 µM; in the assay on DU-145 prostate, 0.0262 µM; in the assay on HOP-92 NSCLC, 0.0887 µM and 0.0712 µM; in the assay with NCI/ADR-RES ovarian it was 0.104 µM and 0.0155 µM. The TGI in the assay on SF-539 CNS is 0.0548 µM and 0.038 µM; in the assay on SK-MEL-5 melanoma, 0.0358 µM and 0.0269 µM; with SN12C renal, 0.216 µM and 0.184 µM.

As for `Oc1c(Cl)cc(Cl)c2ccc(Cn3cc(-c4cc(C(F)(F)F)cc(C(F)(F)F)c4)nn3)nc12`, the GI50 was 2.6 µM in the assay on A498 renal; 15.8 µM in the assay on A549 NSCLC; 1.35 µM with COLO 205 colon; 1.57 µM with DU-145 prostate; 1.58 µM in the assay on HCT-15 colon; 1.45 µM in the assay with HOP-92 NSCLC. The GI50 in the assay with NCI/ADR-RES ovarian is 22.1 µM; in the assay with SF-539 CNS, 1.53 µM; in the assay with SK-MEL-5 melanoma it was 2.98 µM; in the assay on SN12C renal, 3.11 µM. In addition, the TGI in the assay with A498 renal was 10.8 µM; in the assay with A549 NSCLC it was 31.6 µM; with COLO 205 colon, 2.89 µM; in the assay with DU-145 prostate it was 3.06 µM; with HCT-15 colon, 3.55 µM; in the assay with HOP-92 NSCLC, 4.03 µM. For the same compound, the TGI is 71.6 µM with NCI/ADR-RES ovarian, 2.94 µM with SF-539 CNS, 10.7 µM in the assay with SK-MEL-5 melanoma and 11.8 µM in the assay with SN12C renal.

Take `Cc1ccc2nc(-c3ccc(OCC(=O)N=Nc4c(O)[nH]c5ccccc45)cc3)[nH]c2c1`: the GI50 in the assay on A498 renal is more than 100 µM; in the assay on A549 NSCLC it was 2.38 µM; with COLO 205 colon, 4.03 µM; in the assay with DU-145 prostate it was 3.29 µM; with HCT-15 colon it was 8.69 µM; in the assay on HOP-92 NSCLC, 2.79 µM. Besides, the GI50 with NCI/ADR-RES ovarian was more than 100 µM; with SF-539 CNS, 3.51 µM; in the assay with SK-MEL-5 melanoma, 11.9 µM; in the assay with SN12C renal, 2.42 µM. For the same compound, the TGI in the assay with A498 renal was more than 100 µM; with A549 NSCLC it was 6.32 µM; in the assay on COLO 205 colon it was more than 100 µM; in the assay with DU-145 prostate, 13.5 µM; with HCT-15 colon, more than 100 µM; in the assay on HOP-92 NSCLC it was 18.2 µM. Besides, the TGI in the assay on NCI/ADR-RES ovarian was more than 100 µM; with SF-539 CNS, 13.9 µM; in the assay on SK-MEL-5 melanoma, 56.1 µM; in the assay on SN12C renal it was 7.73 µM.

As for `[O-][N+]1(CC[N+]2([O-])CCCCC2)CCCCC1`, the TGI in the assay with A498 renal, in the assay with A549 NSCLC, in the assay on COLO 205 colon, with DU-145 prostate, in the assay on HCT-15 colon and in the assay with HOP-92 NSCLC was more than 100 µM throughout. Moreover, the TGI in the assay on NCI/ADR-RES ovarian, in the assay with SF-539 CNS, in the assay with SK-MEL-5 melanoma and with SN12C renal was more than 100 µM throughout.

For `O=c1cc(-c2ccc(O)cc2)oc2cc(O[C@@H]3O[C@H](CO)[C@@H](O)[C@H](O)[C@H]3O)cc(O)c12`, the TGI with A498 renal, in the assay on A549 NSCLC, in the assay with COLO 205 colon, in the assay on DU-145 prostate, with HCT-15 colon and in the assay with HOP-92 NSCLC was more than 100 µM throughout. Besides, the TGI with NCI/ADR-RES ovarian, in the assay with SF-539 CNS, in the assay with SK-MEL-5 melanoma and with SN12C renal was more than 100 µM each time.
